Laboratory results taken from patent publication US10221162B2, “Triazole agonists of the APJ receptor” (priority 2015, dated 2019).

What was measured:
[1] = test system: naive Sprague Dawley rat hearts; assay: Langendorff isolated perfused rat heart (ex vivo contractility and relaxation); conditions: Langendorff apparatus, as a function of concentration
heart failure rat model = assay: In vivo cardiac contractility in heart failure (MI) rat model; conditions: heart failure rats, acute administration for 30 min, result in words
Procedure: Male Lewis rats (Charles River, USA) at 2-3 months of age were used for the study. […] APJ agonists were administered dose dependently acutely for a period of 30 min.
The interaction between […] (ACE2) and Apelin biology is complicated. To investigate the interaction between the Apelin-APJ and ACE signalling pathways, we examined the improvement in cardiac function with APJ small molecule agonists in the presence of ACE inhibitor captopril in heart failure rats in vivo.

COc1cccc(OC)c1-n1c(NS(=O)(=O)[C@@H](C)[C@H](C)c2ncc(C)cn2)nnc1-c1cncc(C)c1 [Example 263.0, (2S,3R)—N-(4-(2,6-dimethoxyphenyl)-5-(5-methylpyridin-3-yl)-4H-1,2,4-triazol-3-yl)-3-(5-methylpyrimidin-2-yl)butane-2-sulfonamide]
left ventricular dP/dtmax (load independent cardiac contractility) [1]: increases load independent cardiac contractility | left ventricular dP/dtmin (load independent cardiac relaxation) [1]: increases load independent cardiac relaxation | cardiac contractility as measured by dP/dt (heart failure rat model): increase in cardiac contractility
